Results taken from patent publication US6949564B2, “NPY-5 antagonists” (Pfizer Inc., priority 2002, dated 2005).

System: endogenous NPY response (Y1) of human Bowes melanoma cells (HMCB)
Assay: Block of endogenous NPY response in host human Bowes melanoma cells
Conditions: at 10 uM; host Bowes melanoma cells with low levels of Y1 responses

For `NC(N)=NCCC[C@@H](NC(=O)C(c1ccccc1)c1ccccc1)C(=O)NCc1ccc(O)cc1` [BIBP3226], the “block of the endogenous NPY response” value was “completely blocks”.
